In ChEMBL document CHEMBL3885861, “Open TG-GATES”:

Species on record: Rattus norvegicus
Test: Open TG-GATES - Regimen: Single
Format: toxicity, organism-based, Sprague-Dawley
Design: regimen Single, gender Male, age 6 weeks
Conditions: in vivo, po, 20 mg/kg, route gavage, dose level Middle; for APTT / Bas / Eos / Fbg / Hb / Ht / Lym / MCH / MCHC / MCV / Mono / Neu / PT / Plat / RBC / Ret / WBC: tissue Blood; for KIDNEY_L / KIDNEY_R / KIDNEY_TOTAL: tissue Kidney; for LIVER: tissue Liver; for A/G / ALP / ALT / AST / BUN / CRE / Ca / Cl / DBIL / GLC / IP / K / LDH / Na / PL / RALB / TBIL / TC / TG / TP / gamma-GTP: tissue Plasma

## CC(C)NNC(=O)c1ccncc1 [IPRONIAZID]
3 h
  TERMINAL_BW: 203.6 g
  APTT: 21.7 s
  Bas: 0%
  Eos: 1%
  Fbg: 321.4 mg/dL
  Hb: 12.8 g/dL
  Ht: 37.7%
  Lym: 78.8%
  MCH: 21.6 pg
  MCHC: 34.1%
  MCV: 63.4 fL
  Mono: 2%
  Neu: 17.8%
  PT: 16.3 s
  Plat: 114.7 x10_4/uL
  RBC: 594.6 x10_4/ul
  Ret: 8.2%
  WBC: 62.7 x10_2/uL
  KIDNEY_L: 1 g
  KIDNEY_R: 1 g
  KIDNEY_TOTAL: 1.9 g
  LIVER: 9.6 g
  A/G: 1.3
  ALP: 1741.8 IU/L
  ALT: 35.4 IU/L
  AST: 73.2 IU/L
  BUN: 12.4 mg/dL
  CRE: 0.2 mg/dL
  Ca: 10.7 mg/dL
  Cl: 107.2 meq/L
  DBIL: 0.006 mg/dL
  GLC: 182.8 mg/dL
  IP: 8.8 mg/dL
  K: 4 meq/L
  LDH: 229.4 IU/L
  Na: 142 meq/L
  PL: 143.6 mg/dL
  RALB: 3.2 g/dL
  TBIL: 0.01 mg/dL
  TC: 78.8 mg/dL
  TG: 58.8 mg/dL
  TP: 5.7 g/dL
  gamma-GTP: 1.2 IU/L
6 h
  TERMINAL_BW: 213.3 g
  APTT: 23.3 s
  Bas: 0%
  Eos: 0.6%
  Fbg: 324.6 mg/dL
  Hb: 13.2 g/dL
  Ht: 38.9%
  Lym: 72.6%
  MCH: 21.5 pg
  MCHC: 34.1%
  MCV: 63.1 fL
  Mono: 2.6%
  Neu: 23.6%
  PT: 15.6 s
  Plat: 118.4 x10_4/uL
  RBC: 615.8 x10_4/ul
  Ret: 8%
  WBC: 79 x10_2/uL
  KIDNEY_L: 1 g
  KIDNEY_R: 1 g
  KIDNEY_TOTAL: 1.9 g
  LIVER: 9.4 g
  A/G: 1.2
  ALP: 1382.2 IU/L
  ALT: 34.4 IU/L
  AST: 72.8 IU/L
  BUN: 10.4 mg/dL
  CRE: 0.1 mg/dL
  Ca: 10.6 mg/dL
  Cl: 107 meq/L
  DBIL: 0.002 mg/dL
  GLC: 178.8 mg/dL
  IP: 10.3 mg/dL
  K: 4.3 meq/L
  LDH: 212.6 IU/L
  Na: 142 meq/L
  PL: 154.6 mg/dL
  RALB: 2.9 g/dL
  TBIL: 0.008 mg/dL
  TC: 86.4 mg/dL
  TG: 68.2 mg/dL
  TP: 5.4 g/dL
  gamma-GTP: 1.2 IU/L
9 h
  TERMINAL_BW: 207.6 g
  APTT: 22.8 s
  Bas: 0%
  Eos: 1%
  Fbg: 306.4 mg/dL
  Hb: 13.1 g/dL
  Ht: 37.8%
  Lym: 76.4%
  MCH: 21.4 pg
  MCHC: 34.6%
  MCV: 61.8 fL
  Mono: 2.6%
  Neu: 19.4%
  PT: 15.5 s
  Plat: 116.3 x10_4/uL
  RBC: 612.4 x10_4/ul
  Ret: 7.7%
  WBC: 87.5 x10_2/uL
  KIDNEY_L: 1 g
  KIDNEY_R: 1 g
  KIDNEY_TOTAL: 2 g
  LIVER: 8.6 g
  A/G: 1.3
  ALP: 1268.2 IU/L
  ALT: 35 IU/L
  AST: 70.2 IU/L
  BUN: 8.4 mg/dL
  CRE: 0.2 mg/dL
  Ca: 10.6 mg/dL
  Cl: 106.6 meq/L
  DBIL: 0.01 mg/dL
  GLC: 176.2 mg/dL
  IP: 10.2 mg/dL
  K: 4.2 meq/L
  LDH: 171 IU/L
  Na: 141.4 meq/L
  PL: 130.4 mg/dL
  RALB: 3 g/dL
  TBIL: 0.02 mg/dL
  TC: 79.2 mg/dL
  TG: 35.8 mg/dL
  TP: 5.4 g/dL
  gamma-GTP: 1 IU/L
24 h
  TERMINAL_BW: 213.8 g
  APTT: 21.6 s
  Bas: 0%
  Eos: 0.6%
  Fbg: 318.8 mg/dL
  Hb: 12.9 g/dL
  Ht: 37.7%
  Lym: 76.8%
  MCH: 20.9 pg
  MCHC: 34.2%
  MCV: 60.9 fL
  Mono: 2%
  Neu: 19.6%
  PT: 15.9 s
  Plat: 125.4 x10_4/uL
  RBC: 618.2 x10_4/ul
  Ret: 7.7%
  WBC: 81.3 x10_2/uL
  KIDNEY_L: 1 g
  KIDNEY_R: 1 g
  KIDNEY_TOTAL: 1.9 g
  LIVER: 10.1 g
  A/G: 1.2
  ALP: 1498.8 IU/L
  ALT: 38.2 IU/L
  AST: 73 IU/L
  BUN: 17.8 mg/dL
  CRE: 0.2 mg/dL
  Ca: 10.9 mg/dL
  Cl: 105.4 meq/L
  DBIL: 0.006 mg/dL
  GLC: 177.6 mg/dL
  IP: 8 mg/dL
  K: 4.5 meq/L
  LDH: 275.4 IU/L
  Na: 141.6 meq/L
  PL: 134.8 mg/dL
  RALB: 3 g/dL
  TBIL: 0.006 mg/dL
  TC: 73 mg/dL
  TG: 85.6 mg/dL
  TP: 5.5 g/dL
  gamma-GTP: 1.6 IU/L
